Source: patent publication US20250387462A1, “LIPID NANOPARTICLES FOR […] OF NUCLEIC ACIDS AND VACCINE FOR THE PREVENTION OF TU[…] OTHER MYCOBACTERIAL INFECTIONS” (priority 2024, published 2025)

Columns and labels:
[1] = Apparent solubility of phosphatidylserine salts in ethanol (shake flask); type: physicochemical; conditions: 21 °C, organic solvent or mixture, thermodynamic from solid, 100% ethanol, room temperature, average±SD (N=3)
Description: Apparent solubilities of phosphatidylserine salts in ethanol were determined by shake flask technique. Sodium and ammonium salts of phosphatidylserines in the powder form were obtained from Avanti Polar Lipids (Alabama, USA). Aliquots of phosphatidylserine salt powder were placed in 12×75 borosilicate glass tubes in triplicate. Three mL of 200 proof ethanol (catalog number E-7023, MilliporeSigma, USA) were added, the tubes were closed with polyethylene snap caps, agitated using vortex mixer for 10-15 s to obtain uniform suspensions, and placed in a horizontal position on a rocking platform at room temperature (20-22° C.) overnight. The ambient temperature at the end of incubation was 20.4-20.9° C. After 24 hours incubation, the suspensions were visually checked for the presence of a solid phase, allowed to settle under gravity, and the supernatant solutions were passed through a 0.2-μm PTFE syringe membrane filters. The first 0.5 ml of the filtrate was discarded, the next 1 ml was collected, and phosphatidylserine in the filtrates was quantified by phospholipid phosphate assay as follows: 20 μL aliquots of the filtrate were taken in triplicate into glass tubes, ethanol was evaporated in a stream of argon at 70° C., and the residue was digested in a mixture of 60 μL concentrated sulfuric acid and 20 μL 30% hydrogen peroxide for 10 min at 180-190° C. The digested samples were diluted with 1 mL of deionized water, 20 μL of 10% sodium sulfite was added to destroy any residual peroxide, and the samples were incubated on a boiling water bath for 15 min to hydrolyze any condensed phosphate species. The samples were chilled down to room temperature, mixed with 0.2 mL of 2% (w/w) ammonium molybdate solution and 20 μL of 10% (w/w) ascorbic acid solution, incubated on a boiling water bath for 10 min, and chilled down in a water bath at room temperature. The phosphate concentration was determined from the optical density of the formed blue phosphomolybdic acid at 825 nm using five-point standard curve from concurrently run standards prepared from the NIST-traceable commercial phosphate standard solution diluted to cover the range of 0-2 mM phosphate (coefficient of determination R^2>0.9999). Solubility of phosphatidylserine salts was expressed in molarity units of phosphatidylserine (Table 28). The data are average±SD (N=3).

[2] = In vivo metabolism of ionizable lipid after intramuscular injection
Excerpt: We have observed that in vivo metabolism of the KC3-OA lipids after intramuscular injection is slow. This is not unexpected because there are no ester linkages in the lipid tail that would allow for the release of the lipid head group and subsequent clearance from the body. We have identified multiple biodegradable ICLs that differ in the length of the lipid tail, the location and orientation of the ester linkage, and the inclusion of a double bond in the lipid tail.

[3] = system: Mtb-specific CD4 and CD8 T cells; assay: Mtb antigen-specific splenic CD4 and CD8 T cell responses after mRNA-LNP vaccination of CB6F1 or B6C3F1 mice (peptide pool stimulation, intracellular cytokines); type: in vivo; conditions: 1 ug or 0.2 ug i.m., boost 5 weeks, 8 days later, lipid in DPPS-targeted LNP
MutuDC1940 cells = assay: mCherry mRNA transfection efficiency of LNPs in murine dendritic cells (flow cytometry); type: cell-based; conditions: lipid in LNPs, even in the presence of DPPS targeting lipid
Description: • 1. MutuDC1940 cells (Applied Biological Materials, T0528) were grown according to supplier's instructions in T75 flasks. They were plated at 180,000 cells/well into 24-well plate one day prior to transfection. • 2. LNPs were added in triplicate to each well at the desired mRNA concentration (e.g. 1 μg/mL) in 1 mL media and after 24 h the cells were washed once with DPBS (VWR 02-0119-1000). • 3. 0.2 mL of DPBS (plus 5 mM EDTA, pH 7.4) was then added to facilitate detachment. • 4. The cells were placed at 37° C. for 3 min, until detached. • 5. 0.5 ml DPBS added to each well and the liquid transferred to a flow cytometry tube (Falcon 5 mL #352054). • 6. The tube was centrifuged at 1100 rpm for 3-5 min and the liquid poured off. • 7. 100 μL of Zombie Violet (Biolegend) (diluted 1:500 in PBS) was added to each tube. • 8. The tubes were gently tapped to resuspend cells and placed in the dark for 15 min at RT. • 9. […]
Cells suspensions were analyzed by an Attune NXT flow cytometer using the VL1 and YL2 for live/dead and mCherry fluorescence signals respectively. […]
The aim of this study was to explore the effect of different KC2 and KC3 ICLs on transfection efficiency in murine dendritic cells. […] Two other variants evaluated have monounsaturated alkyl chains with KC3-OA being 18 carbons in length and KC3C17(8:1) having 17 carbons. […]

Row | Structure (SMILES) | solubility at 24 h [1] [mM] | further results
1 | CCCCCCCCCCCCCCCC(=O)OC[C@H](COP(=O)(O)OC[C@H](N)C(=O)[O-])OC(=O)CCCCCCCCCCCCCCC.[Na+] [DPPS sodium] | 0.201 ± 0.004 | –
2 | CCCCCCCCCCCCCCCC(=O)OC[C@H](COP(=O)(O)OC[C@H](N)C(=O)O)OC(=O)CCCCCCCCCCCCCCC.N [DPPS ammonium] | 0.865 ± 0.06 | –
3 | CCCCCCCC/C=C\CCCCCCCCC1(CCCCCCCC/C=C\CCCCCCCC)OC[C@H](CCCN(C)C)O1 [KC3-OA, 3-((S)-2,2-di((Z)-octadec-9-en-1-yl)-1,3-dioxolan-4-yl)-N,N-dimethylpropan-1-amine] | – | in vivo metabolism after intramuscular injection [2]: slow
4 | CC(C)CCCC(C)CCCC(C)CCOC(=O)CCCCCCCC1(CCCCCCCC(=O)OCCC(C)CCCC(C)CCCC(C)C)OCC(CCCN(C)C)O1 (stereo not shown) [KC3-X1-PH5] | – | CD4 and CD8 T cell magnitude compared to KC3-OA [3]: statistically performed better than KC3-OA
5 | CCCCCCCCCCCCCCCCCC1(CCCCCCCCCCCCCCCCC)OC[C@H](CCCN(C)C)O1 [KC3-17, (S)-3-(2,2-diheptadecyl-1,3-dioxolan-4-yl)-N,N-dimethylpropan-1-amine] | – | transfection activity in murine dendritic cells (in words) (MutuDC1940 cells): completely inactive
6 | CCCCCCCCCCCCCCCCCC(=O)OC[C@H](COP(=O)(O)OC[C@H](N)C(=O)[O-])OC(=O)CCCCCCCCCCCCCCCCC.[Na+] [DSPS sodium] | 0.111 ± 0.009 | –
7 | CCCCCCCCCCCCCCCCCC(=O)OC[C@H](COP(=O)(O)OC[C@H](N)C(=O)O)OC(=O)CCCCCCCCCCCCCCCCC.N [DSPS ammonium] | 0.034 ± 0.004 | –
